This passage reports AC40 results from PubChem BioAssay AID652072 (Broad Institute, 2013).

Structures are written as SMILES. Inconclusive results are not listed.

The subject of this test is LOX IMVI melanoma, caspase 3/7 luminescence, apoptosis. Put plainly: apoptosis induction over several timepoints, melanoma line – cell-based, LOX IMVI, luminescence, multiple timepoints, dry powder, mechanism study for HRAS target identification, dose response (AID 652072). The following applies: measured here: caspase 3/7, timepoint 3.

For the compound `CCC(=O)N(c1ccc(OC)c(Cl)c1)C(C(=O)NCCc1ccccc1)c1cccs1` (stereo unspecified), the AC40 was more than 35 µM.
